In patent publication US9321737B2, “CDK8-CDK19 selective inhibitors and their use in anti-metastatic and chemopreventative methods for cancer” (SENEX BIOTECHNOLOGY INC, priority 2012, dated 2016):

Experiments:
CDK8 [1] = target: T1, CDK8 (Homo sapiens, UniProt P49336); experiment: In vitro CDK8 kinase activity inhibition (ProQinase assay kit); details: read-out: IC50, inhibition of CDK8 kinase activity, different assays
[2] = 12-day animal toxicity study; assay type: in vivo, Balb/c mice; details: 40 mg/kg i.p.
[3] = tested on: CDKI pathway (CMV promoter stimulation by p21) in HT1080 fibrosarcoma cells; experiment: CDKI pathway inhibition cellular assay (CMV-GFP induction by IPTG-inducible p21); assay type: cell-based, human; details: for activity in cell-based CDKI pathway assay: CMV-GFP
Protocol: The compounds described below are shown in Table 1 and the structures of some novel compounds according to the invention are shown in FIG. 1. […] All the compounds were tested for the ability to inhibit the CDKI pathway in a cellular assay described in our previous patent application PCT/US06/01046. This assay is based on the induction of green fluorescent protein (GFP) expression from the cytomegalovirus (CMV) promoter in human HT1080 fibrosarcoma cells that express CDKI p21 from an isopropyl-β-thio-galactoside (IPTG)-inducible promoter. The compound activity as a CDKI pathway inhibitor is measured by its ability to prevent the stimulation of the CMV promoter upon the addition of p21-inducing IPTG. CMV promoter activity is measured by the ratio of GFP fluorescence to the relative cell number, as determined by staining cellular DNA with Hoechst 33342.

YSK4 = target: T2, YSK4 (Homo sapiens, UniProt Q56UN5); experiment: KinomeScan ATP pocket binding inhibition, YSK4; details: 2,000 nM
T2 construct: purchased KinomeScan, a division of Ambit Biosciences
T2 sequence (Q56UN5 1-1328): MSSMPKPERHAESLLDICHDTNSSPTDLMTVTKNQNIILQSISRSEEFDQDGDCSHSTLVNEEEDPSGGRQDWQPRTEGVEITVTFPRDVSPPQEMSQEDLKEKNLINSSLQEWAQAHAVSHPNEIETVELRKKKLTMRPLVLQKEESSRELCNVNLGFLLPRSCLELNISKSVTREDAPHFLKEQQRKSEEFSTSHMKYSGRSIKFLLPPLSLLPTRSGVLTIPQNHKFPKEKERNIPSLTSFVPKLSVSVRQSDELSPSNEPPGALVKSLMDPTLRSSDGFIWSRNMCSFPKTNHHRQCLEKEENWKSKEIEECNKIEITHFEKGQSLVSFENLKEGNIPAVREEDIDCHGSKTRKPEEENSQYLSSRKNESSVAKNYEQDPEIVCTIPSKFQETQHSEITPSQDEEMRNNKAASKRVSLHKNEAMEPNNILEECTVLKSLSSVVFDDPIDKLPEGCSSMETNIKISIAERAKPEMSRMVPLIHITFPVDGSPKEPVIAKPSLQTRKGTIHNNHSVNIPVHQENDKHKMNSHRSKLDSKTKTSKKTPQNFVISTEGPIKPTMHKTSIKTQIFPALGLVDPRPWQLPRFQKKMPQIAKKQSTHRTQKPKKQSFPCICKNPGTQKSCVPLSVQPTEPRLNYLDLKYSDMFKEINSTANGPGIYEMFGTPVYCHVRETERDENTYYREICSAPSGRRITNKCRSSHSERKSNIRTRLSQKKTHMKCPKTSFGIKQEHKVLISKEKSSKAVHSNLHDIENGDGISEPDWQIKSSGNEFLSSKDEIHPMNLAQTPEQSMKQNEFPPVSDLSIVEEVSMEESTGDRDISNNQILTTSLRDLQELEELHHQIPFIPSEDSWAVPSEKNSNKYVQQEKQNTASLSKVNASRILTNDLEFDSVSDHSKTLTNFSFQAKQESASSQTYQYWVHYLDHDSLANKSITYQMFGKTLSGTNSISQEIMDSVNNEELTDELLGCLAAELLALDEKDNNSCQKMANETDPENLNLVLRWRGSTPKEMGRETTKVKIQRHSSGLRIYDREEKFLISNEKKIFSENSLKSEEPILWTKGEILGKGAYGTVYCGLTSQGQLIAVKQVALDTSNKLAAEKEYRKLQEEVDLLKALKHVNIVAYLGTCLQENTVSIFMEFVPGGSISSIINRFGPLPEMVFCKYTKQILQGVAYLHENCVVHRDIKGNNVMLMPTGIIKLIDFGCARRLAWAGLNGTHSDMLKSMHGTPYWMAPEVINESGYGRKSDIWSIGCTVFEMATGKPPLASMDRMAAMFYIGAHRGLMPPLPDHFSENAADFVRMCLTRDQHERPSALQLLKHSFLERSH
From the text: (§1) (16) The results of this analysis are presented in FIGS. 6A-B in the form of an evolutionary dendrogram of the kinase family, where kinase inhibition is represented by red circles, the size of which represents the magnitude of the inhibition.

[4] = tested on: β-catenin-dependent TOPFLASH promoter in HCT116 colon carcinoma cells; experiment: β-catenin-dependent TOPFLASH luciferase assay; assay type: cell-based; details: different concentrations
Protocol: The effect of different concentrations of Senexin B on luciferase expression from β-catenin-dependent TOPFLASH promoter in HCT116 colon carcinoma cells was measured as described in US Patent Publication 20120071477 for Senexin A (SNX2-1-53).

MDA-MB-231 = MDA-MB-231 orthotopic TNBC xenograft; assay type: in vivo, female SCID mice; details: 40 mg/kg, 5 daily doses, three rounds
Protocol: Once tumors were formed, mice were randomized into 4 cohorts (n=10) and treated, at 7-10 day intervals, with three rounds of: vehicle (5 daily doses), 1 mg/kg doxorubicin (single dose), 40 mg/kg Senexin B (5 daily doses) or doxorubicin (single dose)+Senexin B (5 daily doses).

CDK8 [5] = target: T1, CDK8; experiment: Kd determination, CDK8; assay type: binding; details: in duplicate
From the text: as §1

[6] = tested on: MDA-MB-468 triple-negative breast cancer (TNBC) cells; experiment: Pretreatment and treatment, MDA-MB-468 orthotopic engraftment; assay type: in vivo, female nude mice
Protocol: Next we tested the effect of 5-day pretreatment with 25 mg/kg daily doses of Senexin B (i.p.) on the engraftment of MDA-MB-468 triple-negative breast cancer (TNBC) cells, injected orthotopically in the fat pad of 6-8 week old female nude mice (4 per group), following the last Senexin B treatment. The appearance of palpable tumors was scored every day. […] In the experiment shown in FIG. 9B, mice were treated (daily i.p. injections with 40 mg/kg Senexin B) both before MDA-MB-468 injection (for three days) and after the injection.

T1 sequence (P49336 whole entry): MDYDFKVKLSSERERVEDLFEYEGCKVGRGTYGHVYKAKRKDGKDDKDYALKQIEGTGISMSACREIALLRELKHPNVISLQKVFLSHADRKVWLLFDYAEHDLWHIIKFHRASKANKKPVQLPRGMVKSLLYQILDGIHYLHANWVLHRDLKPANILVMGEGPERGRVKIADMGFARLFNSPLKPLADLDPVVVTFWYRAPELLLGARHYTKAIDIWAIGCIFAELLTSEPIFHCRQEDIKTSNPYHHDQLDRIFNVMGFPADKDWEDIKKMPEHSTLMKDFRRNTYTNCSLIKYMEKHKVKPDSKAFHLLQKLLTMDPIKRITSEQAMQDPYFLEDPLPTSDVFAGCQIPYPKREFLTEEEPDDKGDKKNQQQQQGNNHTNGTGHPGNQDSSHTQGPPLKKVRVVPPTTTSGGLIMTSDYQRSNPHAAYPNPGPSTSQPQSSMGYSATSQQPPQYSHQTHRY

For `CN1CCN(C(=O)c2ccc3cc(CCNc4ncnc5ccc(C#N)cc45)ccc3c2)CC1` [SNX2-1-165], the IC50 (CDK8 [1]) was 0.024 to 0.05 µM, the “body weight gains at end of study” value ([2]; 5 daily doses, 2-day break) was “indistinguishable from the carrier-treated mice” and the “decrease in lymphocytes (blood counts)” value ([2]; 12-day study) was roughly 25%. The spleen weight decrease ([2]; 12-day study) was roughly 20%, the “blood counts, other cell types” value ([2]; 12-day study, relative to control mice) was “no changes” and the “activity in cell-based CDKI pathway assay” value ([3]; IPTG-inducible p21) was “more active than any of the previously developed SNX2-class compounds”. The “activity in cell-based CDKI pathway assay” value ([3]; IPTG-inducible p21, listed as Senexin B) was “potently inhibited”, the EC50 ([3]; IPTG-induced p21, CMV-GFP / Hoechst 33342, read-out: Cell-based Assay EC50) was 0.53 µM and the “% inhibition of YSK4” value (YSK4) was 59%. The “luciferase expression from TOPFLASH promoter (β-catenin activity)” value [4] was “concentration-dependent inhibition”, the “body weight difference from control” value (MDA-MB-231) was “no significant weight difference from the control” and the Kd (CDK8 [5]) was 0.14 µM. The “appearance of palpable tumors” value ([6]; 5-day pretreatment 25 mg/kg daily i.p.) was “significantly slower appearance of palpable tumors” and the “tumor growth (tumor volumes, caliper)” value ([6]; daily i.p. 40 mg/kg, three days before and after injection) was “strong and sustained inhibition of tumor growth”.
